Literature values, collected in patent US20260276655A1, “BIOMARKERS OF AMYOTROPHIC LATERAL SCLEROSIS AND USES THEREOF” (The Methodist Hospital, priority 2023, published 2026).

Tests used:
[1] = normal physiological conditions
[2] = system: ALS patients; conditions: administered to ALS patients

## CCCCCC(O)/C=C/C=O (centres unmarked) [4-HNE, 4-hydroxynonenal]
[1]
  half-life: less than 2 minutes

## CO/N=C(\C(=O)N[C@@H]1C(=O)N2C(C(=O)O)=C(CSc3nc(=O)c(=O)[nH]n3C)CS[C@H]12)c1csc(N)n1 [ceftriaxone, (6R,7R)-7-[[(2Z)-2-(2-amino-1,3-thiazol-4-yl)-2-methoxyiminoacetyl]amino]-3-[(2-methyl-5,6-dioxo-1H-1,2,4-triazin-3-yl)sulfanylmethyl]-8-ox o-5-thia-1-azabicyclo[4.2.0]oct-2-ene-2-carboxylic acid]
[2]
  outcome of phase 3 clinical trial: failed
